Source: ChEMBL document CHEMBL3734713, “4-Thiazolidinone derivatives as potent antimicrobial agents: microwave-assisted synthesis, biological evaluation and docking studies” (2015)
≈ marks a conversion by molar mass, not a printed value.

Experiments:
Bacillus cereus = experiment: Antibacterial activity against clinical isolates of Bacillus cereus assessed as growth inhibition after 24 hrs at 37 degC by iodonitrotetrazolium chloride staining based microdilution broth assay; assay type: functional
Micrococcus flavus = experiment: Antibacterial activity against Micrococcus flavus ATCC 10240 assessed as growth inhibition after 24 hrs at 37 degC by iodonitrotetrazolium chloride staining based microdilution broth assay; assay type: functional; details: ATCC 10240, 24 h
Staphylococcus aureus = experiment: Antibacterial activity against Staphylococcus aureus ATCC 6538 assessed as growth inhibition after 24 hrs at 37 degC by iodonitrotetrazolium chloride staining based microdilution broth assay; assay type: functional; details: ATCC 6538, 24 h
Listeria monocytogenes = experiment: Antibacterial activity against Listeria monocytogenes NCTC 7973 assessed as growth inhibition after 24 hrs at 37 degC by iodonitrotetrazolium chloride staining based microdilution broth assay; assay type: functional; details: NCTC 7973, 24 h
Escherichia coli = experiment: Antibacterial activity against Escherichia coli ATCC 35210 assessed as growth inhibition after 24 hrs at 37 degC by iodonitrotetrazolium chloride staining based microdilution broth assay; assay type: functional; details: ATCC 35210, 24 h
Enterobacter cloacae = experiment: Antibacterial activity against human isolate of Enterobacter cloacae assessed as growth inhibition after 24 hrs at 37 degC by iodonitrotetrazolium chloride staining based microdilution broth assay; assay type: functional
Pseudomonas aeruginosa = experiment: Antibacterial activity against Pseudomonas aeruginosa ATCC 27853 assessed as growth inhibition after 24 hrs at 37 degC by iodonitrotetrazolium chloride staining based microdilution broth assay; assay type: functional; details: ATCC 27853, 24 h
Salmonella typhimurium = experiment: Antibacterial activity against Salmonella typhimurium ATCC 13311 assessed as growth inhibition after 24 hrs at 37 degC by iodonitrotetrazolium chloride staining based microdilution broth assay; assay type: functional, Salmonella enterica subsp. enterica serovar Typhimurium; details: Salmonella enterica, ATCC 13311, 24 h
Aspergillus fumigatus = experiment: Antifungal activity against Aspergillus fumigatus ATCC 1022 assessed as growth inhibition after 72 hrs at 28 degC by serial dilution method; assay type: functional; details: for MIC: Aspergillus fumigatus, ATCC 1022, 72 h
Aspergillus versicolor = experiment: Antifungal activity against Aspergillus versicolor ATCC 11730 assessed as growth inhibition after 72 hrs at 28 degC by serial dilution method; assay type: functional; details: for MIC: Aspergillus versicolor, ATCC 11730, 72 h
Aspergillus ochraceus = experiment: Antifungal activity against Aspergillus ochraceus ATCC 12066 assessed as growth inhibition after 72 hrs at 28 degC by serial dilution method; assay type: functional; details: for MIC: Aspergillus ochraceus, ATCC 12066, 72 h
Aspergillus niger = experiment: Antifungal activity against Aspergillus niger ATCC 6275 assessed as growth inhibition after 72 hrs at 28 degC by serial dilution method; assay type: functional; details: for MIC: Aspergillus niger, ATCC 6275, 72 h
Trichoderma viride = experiment: Antifungal activity against Trichoderma viride IAM 5061 assessed as growth inhibition after 72 hrs at 28 degC by serial dilution method; assay type: functional; details: for MIC: Trichoderma viride, IAM 5061, 72 h
Talaromyces funiculosus = experiment: Antifungal activity against Penicillium funiculosum ATCC 36839 assessed as growth inhibition after 72 hrs at 28 degC by serial dilution method; assay type: functional; details: for MIC: Talaromyces funiculosus, ATCC 36839, 72 h
Penicillium ochrochloron = experiment: Antifungal activity against Penicillium ochrochloron ATCC 9112 assessed as growth inhibition after 72 hrs at 28 degC by serial dilution method; assay type: functional; details: for MIC: Penicillium ochrochloron, ATCC 9112, 72 h
Candida albicans = experiment: Antifungal activity against Candida albicans ATCC 10231 assessed as growth inhibition after 72 hrs at 28 degC by serial dilution method; assay type: functional; details: for MIC: Candida albicans, ATCC 10231, 72 h
[1] = molecular target: Human immunodeficiency virus type 1 reverse transcriptase (Human immunodeficiency virus 1) (UniProt Q72547); experiment: Inhibition of HIV1 reverse transcriptase assessed as residual enzyme activity by measuring reduction in [3H]dTTP incorporation into poly(rA)-oligo(dT) at 4 uM incubated for 15 mins by scintillation counting method relative to control

| Compound | MBC (Bacillus cereus) [µM] | MIC (Bacillus cereus) [µM] | MBC (Micrococcus flavus) [µM] | MIC (Micrococcus flavus) [µM] | MBC (Staphylococcus aureus) [µM] | MIC (Staphylococcus aureus) [µM] | MBC (Listeria monocytogenes) [µM] | MIC (Listeria monocytogenes) [µM] | MBC (Escherichia coli) [µM] | MIC (Escherichia coli) [µM] | MBC (Enterobacter cloacae) [µM] | MIC (Enterobacter cloacae) [µM] | MBC (Pseudomonas aeruginosa) [µM] | MIC (Pseudomonas aeruginosa) [µM] | MBC (Salmonella typhimurium) [µM] | MIC (Salmonella typhimurium) [µM] | MFC99.5 (Aspergillus fumigatus) [×10⁻² umol/ml] | MIC (Aspergillus fumigatus) [µM] | MFC99.5 (Aspergillus versicolor) [×10⁻² umol/ml] | MIC (Aspergillus versicolor) [µM] | further results |
| --- | --- | --- | --- | --- | --- | --- | --- | --- | --- | --- | --- | --- | --- | --- | --- | --- | --- | --- | --- | --- | --- |
| O=C1CSC(c2cccc(F)c2)N1c1nc(C23CC4CC(CC(C4)C2)C3)cs1 (stereo unspecified) | 500 (≈ 207 µg/mL) | 300 (≈ 124 µg/mL) | 61.2 (≈ 25.4 µg/mL) | 30.6 (≈ 12.7 µg/mL) | 500 (≈ 207 µg/mL) | 300 (≈ 124 µg/mL) | 125 (≈ 51.8 µg/mL) | 15.3 (≈ 6.34 µg/mL) | 125 (≈ 51.8 µg/mL) | 15.3 (≈ 6.34 µg/mL) | 125 (≈ 51.8 µg/mL) | 30.6 (≈ 12.7 µg/mL) | 15.3 (≈ 6.34 µg/mL) | 9 (≈ 3.73 µg/mL) | 15.3 (≈ 6.34 µg/mL) | 9 (≈ 3.73 µg/mL) | 0.14 | 0.8 (≈ 0.332 µg/mL) | 0.14 | 0.4 (≈ 0.166 µg/mL) | MFC99.5 (Aspergillus ochraceus): 0.14 ×10⁻² umol/ml; MIC (Aspergillus ochraceus): 0.4 µM (≈ 0.166 µg/mL); MFC99.5 (Aspergillus niger): 0.14 ×10⁻² umol/ml; MIC (Aspergillus niger): 0.8 µM (≈ 0.332 µg/mL); MFC99.5 (Trichoderma viride): 0.14 ×10⁻² umol/ml; MIC (Trichoderma viride): 1.2 µM (≈ 0.497 µg/mL); MFC99.5 (Talaromyces funiculosus): 0.14 ×10⁻² umol/ml; MIC (Talaromyces funiculosus): 0.8 µM (≈ 0.332 µg/mL); MFC99.5 (Penicillium ochrochloron): 0.14 ×10⁻² umol/ml; MIC (Penicillium ochrochloron): 0.4 µM (≈ 0.166 µg/mL); MFC99.5 (Candida albicans): 0.14 ×10⁻² umol/ml; MIC (Candida albicans): 0.8 µM (≈ 0.332 µg/mL); Activity [1]: 100% |
| O=C1CSC(c2ccc([N+](=O)[O-])cc2)N1c1nc(C23CC4CC(CC(C4)C2)C3)cs1 (stereo unspecified) | 30.6 (≈ 13.5 µg/mL) | 16.2 (≈ 7.18 µg/mL) | 125 (≈ 55.2 µg/mL) | 61.2 (≈ 27 µg/mL) | 61.2 (≈ 27 µg/mL) | 30.6 (≈ 13.5 µg/mL) | 125 (≈ 55.2 µg/mL) | 61.2 (≈ 27 µg/mL) | 125 (≈ 55.2 µg/mL) | 85 (≈ 37.5 µg/mL) | 62.5 (≈ 27.6 µg/mL) | 30.6 (≈ 13.5 µg/mL) | 125 (≈ 55.2 µg/mL) | 30.6 (≈ 13.5 µg/mL) | 125 (≈ 55.2 µg/mL) | 30.6 (≈ 13.5 µg/mL) | 4.52 | 11.3 (≈ 4.99 µg/mL) | 1.13 | 5.6 (≈ 2.47 µg/mL) | MFC99.5 (Aspergillus ochraceus): 0.28 ×10⁻² umol/ml; MIC (Aspergillus ochraceus): 1.4 µM (≈ 0.618 µg/mL); MFC99.5 (Aspergillus niger): 0.56 ×10⁻² umol/ml; MIC (Aspergillus niger): 3.5 µM (≈ 1.55 µg/mL); MFC99.5 (Trichoderma viride): 0.28 ×10⁻² umol/ml; MIC (Trichoderma viride): 1.4 µM (≈ 0.618 µg/mL); MFC99.5 (Talaromyces funiculosus): 0.14 ×10⁻² umol/ml; MIC (Talaromyces funiculosus): 0.7 µM (≈ 0.309 µg/mL); MFC99.5 (Penicillium ochrochloron): 0.28 ×10⁻² umol/ml; MIC (Penicillium ochrochloron): 1.4 µM (≈ 0.618 µg/mL); MFC99.5 (Candida albicans): 2.26 ×10⁻² umol/ml; MIC (Candida albicans): 11.3 µM (≈ 4.99 µg/mL); Activity [1]: 99.3% |
